Holding throughout (format): binding, sheep
The test system of test [1] is Antibody to Immunogen I. The conditions noted are these: Cross-reactants at 100 ng/ml; Antibody to Immunogen I. The method, then: (§1) An aqueous solution of each immunogen was formulated with Freund's Complete Adjuvant (FCA) to form an emulsion consisting of 2mg/ml* immunogen in 50% (v/v) FCA. Three sheep were immunised with this emulsion (1° immunisation), 0.25ml being intramuscularly injected at each of four sites in the flank of each animal. Subsequent immunizations (boosts) contained 1mg/ml* immunogen. All boosts were emulsified in 50% (v/v) Freund's Incomplete Adjuvant (FIA) and were administered in the same manner as the 1° immunisation, at monthly intervals. Blood sampling took place 7 to 14 days after each boost. *The general procedure for immunogen administration is outlined above, however, it was necessary to deviate from this protocol in some cases, due to reduced immunogen concentrations (Immunogens II, IV, VII and VIII) and/or amount available (Immunogen VIII). Any deviations from the protocol described are outlined in Table 1A below and highlighted in bold. Table 1A: Amount and volume of immunogens administered for primary and subsequent boosts
(§2) The wells of an enhanced binding 96 well polystyrene microtiter plate were coated with IgG fraction of antiserum raised to Immunogen I or II, diluted in 10mM Tris, pH8.5 (125µl/well). The appropriate antibody coating dilution was determined using standard ELISA checkerboard techniques. The plate was incubated overnight at 4°C, washed 4 times over 10 minutes with Tris buffered saline containing Tween 20 (TBST) and tapped dry. Standard solutions (JWH-018 for Immunogens I and II) were applied at 0, 0.625, 1.25, 2.5, 5, 10, 20 and 40ng/ml and 50µl of each was added to the appropriate wells. 75µl of conjugate (appropriate hapten-HRP) diluted in Tris buffer (pH 7.2) containing EDTA, D-mannitol, sucrose, thimerosal and BSA, was added to each of the wells. The appropriate dilution of conjugate was also determined using standard ELISA checkerboard techniques. The plate was incubated at 25°C for 1 hour. Excess unbound conjugate was removed by washing 6 times over a 10 minute period with TBST. 125µl of tetramethylbenzidine (TMB) substrate solution was added to each well of the plate that was then incubated for 20 minutes in the dark at room temperature. The reaction was terminated by addition of 125µl 0.2M H2SO4 to each well. The absorbance was then measured at 450nm using a microtiter plate reader. The data are inputted to a computer program called 'KC Junior'. It is a 4 parameter fit curve and allow the calculatation of concentrations between the standard runs. This program is used to calculate the IC50s by dividing the 0ng/ml OD value by 2 and obtaining the concentration value from the curve for this OD.
In a similar manner to that described above, the wells of a 96-well microtiter plate were coated with the IgG fraction of the antiserum raised to Immunogens I or II. Standard solutions (JWH-018 for Immunogen I and II) were applied at 0, 0.625, 1.25, 2.5, 5, 10, 20 and 40ng/ml and conjugate was employed as detection reagent.
(§3) The data set our in Tables 3 and 4 are generated using antibodies raised against the indicated Immunogens in a competitive binding assay with the indicated tracers, using the indicated standards: Table 2
(§4) A450 = absorbance at 450nm B = absorbance at 450nm at xng/ml standard concentration B0 = absorbance at 450nm at 0ng/ml standard concentration IC50 = standard concentration which produces 50% B/B0
(§5) In order to determine the specificity of the competitive ELISAs, standard solutions of a range of structurally similar synthetic cannabinoids and their metabolites were prepared in TBST. Using the calibration curves generated and employing a single level of cross reactants, these were used to determine the cross-reactivity of each immunoassay with these substances. […]

The subject of test [2] is Antibody to Immunogen II. In words: Competitive ELISA (Example 36), antibody RS1833B12, tracer ESC4555/LK959, standard JWH-018. The following applies: Cross-reactants at 100 ng/ml; Antibody to Immunogen II. The method, then:
as §1
as §2, with “The” for “The wells of an enhanced binding 96 well polystyrene microtiter plate were coated with IgG fraction of antiserum raised to Immunogen I or II, diluted in 10mM Tris, pH8.5 (125µl/well). The”, “Standard solutions (JWH-018 for Immunogens I and II) were applied at 0, 0.625, 1.25, 2.5, 5, 10, 20 and 40ng/ml and 50µl of each was added to the appropriate wells.” left out, “runs.” for “runs. This program is used to calculate the IC50s by dividing the 0ng/ml OD value by 2 and obtaining the concentration value from the curve for this OD.”
In a similar manner to that described above, the wells of a 96-well microtiter plate were coated with the IgG fraction of the antiserum raised to Immunogens I or II.
as §3
Using the calibration curves generated and employing a single level of cross reactants, these were used to determine the cross-reactivity of each immunoassay with these substances. These are the standards used for the IC50 and cross-reactivity data generation • Immunogen I - JWH-018 • Immunogen II - JWH-018 • Immunogen IV - JWH-018 • Immunogen VII - JWH-015 • Immunogen VIII - JWH-018 Table 4: Cross reactivity of the competitive ELISAs for synthetic cannabinoids and their metabolites

The subject of test [3] is Antibody to Immunogen IV. The conditions noted are these: Cross-reactants at 100 ng/ml; Antibody to Immunogen IV. The method, then:
as §1, §2
(§6) In a similar manner to that described above, the wells of a 96-well microtiter plate were coated with the IgG fraction of the antiserum raised to Immunogens IV, VII or VIII. Standard solutions (JWH-018 for Immunogens IV and VIII, JWH-015 for Immunogen VII) were prepared in TBST at 0, 1.25, 2.5, 5, 10, 20, 40 and 80ng/ml and conjugate was employed as detection reagent.
as §3, §4, §5

The subject of test [4] is Antibody to Immunogen VIII. The conditions noted are these: Cross-reactants at 100 ng/ml; Antibody to Immunogen VIII. The procedure:
as §1, §2, §6, §3, §4, §5

The test system of test [5] is Antibody to Immunogen VII. The following applies: Cross-reactants at 100 ng/ml; Antibody to Immunogen VII. The procedure:
as §1, §2, §6, §3, §4, §5

Regarding `CC(O)CCn1cc(C(=O)c2cccc3ccccc23)c2ccccc21` (stereo not drawn) [JWH-073 N-(3-hydroxybutyl) metabolite], the “%B/B0” value was found to be 3.10% in test [1]; 54.52% in test [2]; 53.52% in test [3]; 94.04% in test [4]; 43.39% in test [5].

For the compound `CC(F)CCCn1cc(C(=O)c2cccc3ccccc23)c2ccccc21` (single isomer, unassigned) [AM-2201 N-(4-fluoropentyl) isomer], the “%B/B0” value in test [1] is given as 3.45%; in test [2] it was 14.60%; in test [3], 5.72%; in test [4], 15.00%; in test [5] it was 52.70%.

Take `O=C(c1cccc2ccccc12)c1cn(CCCCO)c2ccccc12` [JWH-073 N-(4-hydroxybutyl) metabolite]: the “%B/B0” value in test [1] came to 3.22%; in test [2], 60.01%; in test [3], 52.61%; in test [4] it was 57.99%; in test [5] it was 48.81%.

For `O=C(c1cccc2ccccc12)c1cn(CCCC(O)CF)c2ccccc12` (stereo not drawn) [AM-2201 N-(4-hydroxypentyl) metabolite], the “%B/B0” value in test [1] is 3.80%; in test [2], 46.55%; in test [3], 43.62%; in test [4] it was 36.41%; in test [5] it was 52.75%.

Turning to `C=CCCCn1cc(C(=O)c2cccc3ccccc23)c2ccccc21` [JWH-022], the “%B/B0” value in test [1] is given as 4.51%; in test [2], 11.72%; in test [3], 10.61%; in test [4], 28.94%; in test [5] it was 58.44%.

In the case of `CCCCCn1cc(C(=O)c2cccc3ccccc23)c2ccc(OC)cc21` [JWH-018 6-methoxyindole analogue], the “%B/B0” value in test [1] was 10.55%; in test [2], 20.44%; in test [3], 90.65%; in test [4] it was 77.22%; in test [5] it was 72.33%.

As to `CC(C)C(C)n1cc(C(=O)c2cccc3ccccc23)c2ccccc21` (single isomer, unassigned) [JWH 018 N-(1,2-dimethylpropyl) isomer], the “%B/B0” value in test [1] came to 6.60%; in test [2], 71.33%; in test [3], 87.11%; in test [4], 67.71%; in test [5] it was 62.29%.

For the compound `CC(O)CCCn1cc(C(=O)c2cccc3ccccc23)c2ccccc21` (racemic) [(±)-JWH 018 N-(4-hydroxypentyl) metabolite], the “%B/B0” value in test [1] is 4.23%; in test [2], 53.99%; in test [3] it was 52.29%; in test [4] it was 21.94%; in test [5] it was 57.37%.

Turning to `CCCCCCn1cc(C(=O)c2cccc3ccccc23)c2cc(O)ccc21` [JWH 019 5-hydroxyindole metabolite], the “%B/B0” value in test [1] turned out to be 19.81%; in test [2], 17.34%; in test [3], 93.84%; in test [4], 101.57%; in test [5], 87.58%.

`CCCCCCCn1cc(C(=O)c2cccc3ccccc23)c2ccccc21` [JWH-020]: the “%B/B0” value is on record as 16.03% in test [1]; 35.75% in test [2]; 73.73% in test [3]; 100.73% in test [4]; 81.30% in test [5].

Regarding `CN1CCCCC1Cn1cc(C(=O)c2ccccc2I)c2ccccc21` (stereo not drawn) [AM-2233], the “%B/B0” value in test [1] amounted to 16.97%; in test [2], 86.43%; in test [3], 92.10%; in test [4], 91.25%; in test [5], 72.46%.

With `CCCCn1cc(C(=O)c2cccc3ccccc23)c2cc(O)ccc21` [JWH-073 5-hydroxyindole metabolite], the “%B/B0” value amounted to 7.34% in test [1]; 20.73% in test [2]; 84.06% in test [3]; 90.70% in test [4]; 75.11% in test [5].

Consider `CCCCCCC(C)(C)c1cc(OC)c([C@@H]2C=C(CO)[C@@H]3C[C@H]2C3(C)C)c(OC)c1` [HU-308], for which the “%B/B0” value was 101.35% in test [1], 94.03% in test [3], 89.77% in test [4] and 95.95% in test [5].

On to `CCCCCn1cc(C(=O)c2cccc3ccc(CC)cc23)c2ccccc21` [JWH-210 7-ethylnaphthyl isomer or JWH-234, JWH-210 7-ethylnaphthyl isomer], for which the “%B/B0” value is 73.11% in test [1], 27.07% in test [3], 50.90% in test [4] and 100.55% in test [5].

Regarding `CCCCCn1cc(C(=O)c2ccc(CC)c3ccccc23)c2cc(O)ccc21` [JWH-210 5-hydroxyindole metabolite], the “%B/B0” value came to 83.29% in test [1], 48.91% in test [3], 87.72% in test [4] and 100.43% in test [5].

Take `COc1ccc(C(=O)c2cn(CCCCCC(=O)O)c3ccccc23)cc1` [RCS-4 N-(5-carboxypentyl) metabolite]: the “%B/B0” value in test [1] was determined as 77.12%; in test [3], 91.44%; in test [4] it was 91.97%; in test [5] it was 94.00%.

Consider `CCCCCn1cc(C(=O)c2ccc(CC)c3ccccc23)c2ccccc21` [JWH-210], for which the “%B/B0” value in test [1] was 91.18%; in test [3], 5.53%; in test [4] it was 16.87%; in test [5], 96.62%.

`COc1ccc(CC(=O)c2cn(CCC3CCCCC3)c3ccccc23)cc1` [RCS-8 4-methoxy isomer]: the “%B/B0” value in test [1] was 94.94%; in test [3], 90.78%; in test [4], 100.72%; in test [5], 98.21%.

(Values after patent publication EP2698385A1, “Detection of synthetic cannabinoids” (priority 2012, dated 2014).)
